The text below walks through data of patent US20250129486A1, “A METHOD FOR MANUFACTURING PHARMACEUTICAL GRADE HYPOCHLOROUS ACID” (priority 2022, published 2025).

SMILES strings stand for the structures.

The nature of series [1]: Storage stability of HOCl solution by container. The conditions noted are these: any form of plastic container. Type of series: physicochemical. From the text: The present invention relates to a method of manufacture of pharmaceutical grade hypochlorous acid (HOCl) solution. The solution is free of toxic by-products and is manufactured by means of a process that is novel. Furthermore, the manufacturing process results in high concentration HOCl solution at a pre-determined pH level. The solution is stable when kept in UV-protected glass for two years. Due to the method and process of manufacture, the solution is of a pharmaceutical grade.
HOCl+UV light→OH+Cl^−+O3 [Reaction Formula 11] • It is therefore essential to store solutions containing HOCl in UV-protected inert containers. • ii) The container in which the solutions are kept should be made of glass. […] Glass containers avoid oxidation reactions between the container and HOCl. • iii) Stable HOCl production requires platinum grade reactants, including pure water without any organic and inorganic compounds or ions, as the oxidation of these compounds will deplete the HOCl concentration in the solution. • iv) Correcting the solution pH to between 4.0-5.80 immediately after manufacturing, through real-time buffering. Variation outside pH 4.0 to 5.80 will not only result in the dissociation of HOCl into Cl2 or OCl^− but will provide the environment for the decomposition of HOCl to form chlorate. It is therefore of utmost importance that this pH level

For series [2] the following is noted: cited from earlier work.

A word on the pKa: it is the negative logarithm of the acid dissociation constant.

On to `OCl` [HOCl, hypochlorous acid], for which the “Decomposition of HOCl in container” value in series [1] is on record as “marked decomposition”. Besides, the pKa in series [2] is recorded as 7.53.
